Results taken from publication PMC3745031 (Bioorganic & medicinal chemistry letters, 2012).
pIC50: −log10 of the molar value.

Assays:
HDAC1, HDAC3, and HDAC6 = assay: Isoform preference across HDAC1, HDAC3 and HDAC6; format: biochemical
[1] = system: HDAC activity of HeLa cell lysates
[2] = system: HDAC activity of HeLa cell lysates; conditions: ref 16b, cited from earlier work

SMILES: CC(CCCCC(=O)NO)CC(=O)Nc1ccccc1 (stereo not shown) [2a]
- isoform preference in single-concentration screen (HDAC1, HDAC3, and HDAC6; 500 nM): modest dual-preference for HDAC1 and HDAC3 over HDAC6

SMILES: O=C(CCCCC(CC(=O)Nc1ccccc1)c1ccccc1)NO (stereo not shown) [2b]
- isoform preference in single-concentration screen (HDAC1, HDAC3, and HDAC6; 500 nM): similarly inhibited HDAC1, HDAC3, and HDAC6

SMILES: CC(C)(C)C(CCCCC(=O)NO)CC(=O)Nc1ccccc1 (stereo not shown) [2c]
- fold reduced potency compared to SAHA [1]: 20 fold
- isoform preference in single-concentration screen (HDAC1, HDAC3, and HDAC6; 2 µM): preference for HDAC1 and HDAC6 over HDAC3

SMILES: CCCCC(CC)CC(CCCCC(=O)NO)CC(=O)Nc1ccccc1 (stereo not shown) [2d]
- isoform preference in single-concentration screen (HDAC1, HDAC3, and HDAC6; 500 nM): preference for HDAC3 over HDAC1 and HDAC6

SMILES: O=C(CC(CCCCC(=O)Nc1ccccc1)c1ccccc1)NO (stereo not shown) [C3-phenyl SAHA variant]
- pIC50 ([2]; read-out: IC50, HDAC inhibition): 4.14
- fold reduced activity versus SAHA [2]: 811 fold
